Starred links: 1 amine or outer side, 2 acyl side, 3 side chain; linkers in the order of their positions; H or OH if unused. Positions of bridges follow the written chain, without caps; N, C: chain ends. Non-standard residues stand in square brackets, D forms with d. Residues, ends and D or L forms follow the SMILES beside them. Chains are numbered I, II in the order given. Actinocin(9to1) = Cc1c2oc3c(C)ccc(C(=O)[*:1])c3nc-2c(C(=O)[*:2])c(N)c1=O; NMeV = CN[C@H](C(=O)O)C(C)C; Sar = CNCC(=O)O
Experiments:
[1] = test system: DNA target AGCTTGGCG; experiment: Dissociation of zinc finger phage from its DNA target by actinomycin D; format: binding
Experimental: (§1) This example describes phage that bound DNA targets with higher affinity in the absence of ligand. These phage were isolated using either: (a) the same method as in example 1.1, or (b) by selection in the absence of small molecule and phage elution from DNA using a small molecule.
(§2) Phage selection is over 4 rounds. Binding reactions contain 10 pmol biotinylated DNA site immobilised on 50 mg streptavidin coated beads (Dynal) and a 1 ml solution of zinc finger phage library (as described in 1.1) Reactions were incubated for 1 h on a rolling platform. After this time, beads were washed 20 times as described in 1.1 and finally phage were eluted from the beads over 5 minutes using a solution containg ligand (10 μM Distamycin A, or 1 μM Actinomycin D in PBS/Zn).
The actinomycin D sensitive clone was selected with the DNA target AGCTTGGCG and its helices were sequenced as: […]

[2] = test system: CAT reporter gene downstream of the sequence AAAAAAGGCG; experiment: Transient transfection CAT reporter assay; format: cell-based; conditions: in the presence of Distamycin A; zinc finger-HSV VP16 fusion cotransfected
[3] = test system: DNA target AAAAAGCGGAAAAA; experiment: Dissociation of zinc finger phage from its DNA target by distamycin A; format: binding
Experimental: as §1, §2
Some phage isolated by either of the above methods (a or b) bound DNA in the absence of ligand but could be displaced by concentrations of distamycin A at 10 μM and actinomycin D at 1 μM. The distamycin sensitive clone was selected using the DNA target AAAAAGCGGAAAAA (SEQ ID NO:48) and its helices were sequenced as: […]

[4] = test system: DNA sequence AAAAAGGCG; experiment: Phage ELISA: zinc finger phage binding to DNA with and without distamycin A; conditions: DNA concentration constant at 2 nM

effect of ligand on phage binding to specific DNA sequence ([3]; FIG. 6) | ligand concentration at which phage retention is close to background level [4] | Compound | effect of ligand on phage binding to specific DNA sequence ([1]; FIG. 6) | ligand concentration that displaces DNA-bound phage ([1]; actinomycin D sensitive clone) | CAT gene expression [2] | ligand concentration that displaces DNA-bound phage ([3]; distamycin sensitive clone)
 |  | Cc1c2oc3c(C)ccc(C(=O)N[C@@H]4C(=O)N[C@H](C(C)C)C(=O)N5CCC[C@H]5C(=O)N(C)CC(=O)N(C)[C@@H](C(C)C)C(=O)O[C@@H]4C)c3nc-2c(C(=O)N[C@@H]2C(=O)N[C@H](C(C)C)C(=O)N3CCC[C@H]3C(=O)N(C)CC(=O)N(C)[C@@H](C(C)C)C(=O)O[C@@H]2C)c(N)c1=O [actinomycin D] (I: T[dV]P[Sar][NMeV] / II: T[dV]P[Sar][NMeV]; ester I:1-I:C, II:1-II:C; linker I:N-II:N via Actinocin(9to1)) | dissociated from the DNA | 1 µM |  | 
dissociated from the DNA | ≤ 10^−9 M | Cn1cc(NC(=O)c2cc(NC(=O)c3cc(NC=O)cn3C)cn2C)cc1C(=O)NCCC(=N)N [distamycin A] |  |  | CAT expression is observed | 10 µM

Source: patent publication US6706470B2, “Gene switches” (priority 1999, dated 2004)
